For one test, the target named is T1, USP35** (Homo sapiens, UniProt Q9P2H5).
T1 sequence (Q9P2H5 1-1018): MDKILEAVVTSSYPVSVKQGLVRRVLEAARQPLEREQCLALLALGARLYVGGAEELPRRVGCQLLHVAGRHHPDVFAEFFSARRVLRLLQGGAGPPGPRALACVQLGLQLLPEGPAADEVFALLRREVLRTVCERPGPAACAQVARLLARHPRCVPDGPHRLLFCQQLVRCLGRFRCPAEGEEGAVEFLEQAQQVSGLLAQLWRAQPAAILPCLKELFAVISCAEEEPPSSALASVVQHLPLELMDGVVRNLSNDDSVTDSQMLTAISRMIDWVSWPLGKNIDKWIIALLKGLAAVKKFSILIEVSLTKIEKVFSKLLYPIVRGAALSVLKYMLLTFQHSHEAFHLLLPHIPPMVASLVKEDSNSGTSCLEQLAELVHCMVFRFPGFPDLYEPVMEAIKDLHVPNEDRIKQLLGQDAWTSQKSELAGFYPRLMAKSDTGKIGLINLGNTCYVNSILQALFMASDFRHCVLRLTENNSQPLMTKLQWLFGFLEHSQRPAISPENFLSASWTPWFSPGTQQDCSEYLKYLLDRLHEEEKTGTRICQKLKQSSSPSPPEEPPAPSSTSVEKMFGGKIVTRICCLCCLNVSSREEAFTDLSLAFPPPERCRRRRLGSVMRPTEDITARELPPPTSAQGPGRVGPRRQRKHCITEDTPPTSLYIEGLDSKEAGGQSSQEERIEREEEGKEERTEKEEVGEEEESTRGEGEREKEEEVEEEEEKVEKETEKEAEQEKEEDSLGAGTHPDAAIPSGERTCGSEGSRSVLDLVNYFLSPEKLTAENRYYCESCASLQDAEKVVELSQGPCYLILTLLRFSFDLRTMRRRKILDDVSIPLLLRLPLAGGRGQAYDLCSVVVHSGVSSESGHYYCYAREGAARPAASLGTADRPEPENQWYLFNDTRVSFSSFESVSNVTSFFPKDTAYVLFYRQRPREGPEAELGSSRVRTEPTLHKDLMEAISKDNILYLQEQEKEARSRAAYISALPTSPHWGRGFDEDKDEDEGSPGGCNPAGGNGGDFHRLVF
The experiment in a line: biochemical. More on the design: Ubiquigent DUB profiler selectivity panel, remaining enzyme activity as % of control. The settings on record: read-out: % of control remaining. Put shortly: (§1)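 In YFP-PRKN-overexpressing hTERT-RPE1 cells, 1 h antimycin A plus oligomycin A (1 μM each) with CMPD-39, then Western blot of TOMM20 ubiquitylation. Target engagement: 2 h compound, then 10 min HA-Ub-PA at 37°C, read as USP30 shift. DUB panel (>40 enzymes) screened at 1-100 μM.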

Another test addresses T2, USP21 (Homo sapiens, UniProt Q9UK80).
T2 sequence (Q9UK80 1-565): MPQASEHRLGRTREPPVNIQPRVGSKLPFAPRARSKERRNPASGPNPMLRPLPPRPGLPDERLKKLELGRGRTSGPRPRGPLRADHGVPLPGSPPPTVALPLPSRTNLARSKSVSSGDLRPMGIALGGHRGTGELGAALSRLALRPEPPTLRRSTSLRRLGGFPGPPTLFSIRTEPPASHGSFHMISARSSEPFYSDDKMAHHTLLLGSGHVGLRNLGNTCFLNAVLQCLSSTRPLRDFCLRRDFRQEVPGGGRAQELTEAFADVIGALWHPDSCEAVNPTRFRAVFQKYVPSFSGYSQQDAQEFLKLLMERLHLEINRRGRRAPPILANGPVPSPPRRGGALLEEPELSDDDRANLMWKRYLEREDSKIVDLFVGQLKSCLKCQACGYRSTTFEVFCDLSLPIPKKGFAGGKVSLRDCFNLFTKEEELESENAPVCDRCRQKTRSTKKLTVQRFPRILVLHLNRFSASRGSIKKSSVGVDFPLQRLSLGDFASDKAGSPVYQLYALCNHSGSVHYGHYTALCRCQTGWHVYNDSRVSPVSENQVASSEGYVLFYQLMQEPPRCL
The experiment in a line: biochemical. More on the design: Ubiquigent DUB profiler selectivity panel, remaining enzyme activity as % of control. The settings on record: read-out: % of control remaining. In outline:
as §1

From PMC8645336, “Benchmarking a highly selective USP30 inhibitor for enhancement of mitophagy and pexophagy” (Life Science Alliance, 2021) come the findings set out here.

`CC(C)(C)NS(=O)(=O)c1ccc(NC(=O)[C@H](Cc2ccccc2)NC(=O)c2ccc(F)cc2)cc1` [compound 39, CMPD-39]: at USP35**, the remaining activity at 1 µM amounted to 113%, the remaining activity at 10 µM is 101% and the remaining activity at 100 µM was found to be 102%. For the same compound, at USP21, the remaining activity at 1 µM came to 102%, the remaining activity at 10 µM was found to be 94% and the remaining activity at 100 µM is 90.9%.
